Experimental findings from PubChem BioAssay (NCI) are described below.

One may read the TGI as the concentration at which net growth stops. A higher TGI goes with less potent growth arrest. The GI50 is the concentration at which growth is held to half of that of the control.

Test systems include RPMI-8226 leukemia; SW-620 colon; SF-268 CNS; SNB-19 CNS; SK-OV-3 ovarian; SK-MEL-2 melanoma; CAKI-1 renal; HOP-92 NSCLC; CCRF-CEM leukemia.
Assay in all cases: DTP human tumour cell line panel, 48 h

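A five-concentration, 48-hour dose response in 96-well plates underlies each endpoint, interpolated linearly between surrounding concentrations. GI50 marks 50% less growth. TGI denotes the concentration required for complete inhibition of growth.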

Take `Cc1ccccc1NC(=O)C(=O)C(C#N)c1ccccc1C` (stereo not given): the concentration for total growth inhibition (TGI) is over 100 µM in the assay on RPMI-8226 leukemia; 36.5 µM in the assay with SW-620 colon; over 100 µM in the assay with SF-268 CNS; over 100 µM with SNB-19 CNS; over 100 µM with SK-OV-3 ovarian; over 100 µM with SK-MEL-2 melanoma. The results for the TGI in the assay on CAKI-1 renal, in the assay with HOP-92 NSCLC and in the assay with CCRF-CEM leukemia were over 100 µM, over 100 µM and 89.8 µM, respectively.
In the case of `C=C1CCC2[C@@H](CCC3[C@]2(C)CCC[C@]3(C)C(=O)OC)C1CC=O` (stereo not given in full), the GI50 in the assay on RPMI-8226 leukemia is 8.28 µM; with SNB-19 CNS, 18.2 µM; in the assay with SK-OV-3 ovarian, 21.4 µM; with CAKI-1 renal, 16.4 µM. Moreover, the TGI in the assay on RPMI-8226 leukemia was found to be 33.4 µM; in the assay on SW-620 colon, 35 µM; in the assay with SF-268 CNS, 35.1 µM; in the assay on SNB-19 CNS, 33.1 µM; in the assay with SK-OV-3 ovarian, 37.7 µM; in the assay with SK-MEL-2 melanoma it was 38.2 µM. Moreover, the TGI worked out at 30.1 µM with CAKI-1 renal, 27.8 µM in the assay on HOP-92 NSCLC and 35.2 µM with CCRF-CEM leukemia.
On to `N#CC(C#N)c1ccc(C(=O)N2CCC[C@H]2CO)cc1`, for which the TGI in the assay with RPMI-8226 leukemia, in the assay with SW-620 colon, in the assay with SF-268 CNS, with SNB-19 CNS, in the assay with SK-OV-3 ovarian and with SK-MEL-2 melanoma was over 100 µM in each case. Also, the total growth inhibition concentration (TGI) in the assay on CAKI-1 renal, with HOP-92 NSCLC and in the assay on CCRF-CEM leukemia was over 100 µM each time.
As for `O=S(=O)(c1cccc(N=C=S)c1)c1cccc(N=C=S)c1`, the total growth inhibition concentration (TGI) in the assay with RPMI-8226 leukemia was 83.9 µM; in the assay on SF-268 CNS it was 39.8 µM; with SNB-19 CNS, over 100 µM; with SK-OV-3 ovarian, 37.3 µM; in the assay with SK-MEL-2 melanoma, 33.8 µM.
Consider `Cc1cc(C)nc(NS(=O)(=O)c2ccc(Nc3c4ccccc4nc4c(C(=O)Nc5ccc(S(=O)(=O)N=C(N)N)cc5)cccc34)cc2)n1`, for which the TGI with RPMI-8226 leukemia, in the assay with SW-620 colon, in the assay on SF-268 CNS, in the assay on SNB-19 CNS, in the assay on SK-OV-3 ovarian and in the assay on SK-MEL-2 melanoma was over 100 µM each time. For the same molecule, the TGI in the assay with CAKI-1 renal, with HOP-92 NSCLC and in the assay with CCRF-CEM leukemia was over 100 µM throughout.
Consider `O=C(O)/C=C/c1nc2ccccc2c(=O)o1`, for which the TGI in the assay with RPMI-8226 leukemia, in the assay with SW-620 colon, in the assay with SNB-19 CNS, in the assay with SK-OV-3 ovarian, in the assay on SK-MEL-2 melanoma and in the assay with HOP-92 NSCLC was over 100 µM throughout. The TGI in the assay with CCRF-CEM leukemia was over 100 µM.
In the case of `CCOC(=O)/C(C#N)=C(O)/C(=C\c1ccc(Br)cc1)NC(=O)c1ccccc1`, the TGI with RPMI-8226 leukemia was 59.6 µM; in the assay with SW-620 colon it was 51.7 µM; in the assay with SF-268 CNS, over 100 µM; in the assay on SNB-19 CNS, over 100 µM; in the assay with SK-OV-3 ovarian, over 100 µM; in the assay on CAKI-1 renal it was over 100 µM. For the same molecule, the TGI in the assay with HOP-92 NSCLC and in the assay on CCRF-CEM leukemia was over 100 µM in each case.
For `COCCNC(=O)C1C(=O)C(=O)N(CCOC)C1=O` (stereo not given), the TGI in the assay with SW-620 colon, in the assay with SF-268 CNS, in the assay on SNB-19 CNS, in the assay on SK-OV-3 ovarian, in the assay on SK-MEL-2 melanoma and in the assay on CAKI-1 renal was over 100 µM throughout. For the same molecule, the TGI in the assay on HOP-92 NSCLC and with CCRF-CEM leukemia was over 100 µM each time.
On to `COc1cc2c(cc1OC)-c1ncc3c(OC)c(OC)c(OC)cc3c1C2`, for which the GI50 with RPMI-8226 leukemia is 2.5 µM; in the assay with SW-620 colon, 34.2 µM; with SF-268 CNS, 4.97 µM; in the assay on SNB-19 CNS, 23 µM; in the assay on SK-OV-3 ovarian it was 18.9 µM; in the assay on SK-MEL-2 melanoma, 54.1 nM. The values for the GI50 with CAKI-1 renal and with HOP-92 NSCLC were 55.2 µM and 58.5 µM, respectively. Moreover, the concentration for total growth inhibition (TGI) in the assay with RPMI-8226 leukemia is 32.3 µM; in the assay with SW-620 colon, over 100 µM; in the assay with SF-268 CNS, 16.5 µM; in the assay on SNB-19 CNS, 50 µM; in the assay on SK-OV-3 ovarian, 43.2 µM; in the assay on SK-MEL-2 melanoma, 23.5 µM. Besides, the TGI in the assay on CAKI-1 renal and in the assay with HOP-92 NSCLC was over 100 µM in each case.
With `CC(C)=CC(=O)N(C)C1C2CN3CCC(O2)C13` (stereo not given), the TGI in the assay on SW-620 colon, in the assay with SF-268 CNS, in the assay on SNB-19 CNS, in the assay with SK-OV-3 ovarian, with SK-MEL-2 melanoma and with CAKI-1 renal was over 100 µM throughout. The concentration for total growth inhibition (TGI) in the assay with CCRF-CEM leukemia is over 100 µM.
For `O=S(=O)(/C=C/C(=C/c1ccccc1)S(=O)(=O)c1ccccc1)c1ccccc1`, the TGI with RPMI-8226 leukemia is 3.4 µM; in the assay with SF-268 CNS it was 4.1 µM; with SNB-19 CNS it was 3.18 µM; in the assay with SK-OV-3 ovarian, 2.79 µM; with SK-MEL-2 melanoma, 3.54 µM; in the assay with CAKI-1 renal, 2.88 µM. The molecule also showed a TGI in the assay on CCRF-CEM leukemia of 3.05 µM.
Regarding `CCCCCCCCCCCCC(Br)C(=O)NCC(N)=O` (stereo not given), the TGI in the assay on SW-620 colon came out at 52.9 µM; with SF-268 CNS, 17.8 µM; in the assay with SNB-19 CNS it was 24.3 µM; in the assay with SK-OV-3 ovarian it was 59.2 µM; in the assay on SK-MEL-2 melanoma, 26.4 µM; with HOP-92 NSCLC, 18.9 µM. In the assay on CCRF-CEM leukemia, this molecule returned a TGI of 66.3 µM.
In the case of `N#Cc1ccc(C=NC23CC4CC(CC(C4)C2)C3)cc1`, the TGI with RPMI-8226 leukemia, with SW-620 colon, in the assay on SF-268 CNS, in the assay on SNB-19 CNS, in the assay on SK-OV-3 ovarian and in the assay with SK-MEL-2 melanoma was over 100 µM each time. Besides, the total growth inhibition concentration (TGI) in the assay on CAKI-1 renal, in the assay on HOP-92 NSCLC and in the assay on CCRF-CEM leukemia was over 100 µM throughout.
For `Cc1ccc(NC(=O)CC2C(=O)Nc3ccccc3S2(=O)=O)c(C)c1` (stereo not given), the TGI amounted to 43.4 µM with RPMI-8226 leukemia; 19.5 µM in the assay with SW-620 colon; 39.6 µM with SF-268 CNS; 32.6 µM in the assay on SNB-19 CNS; 73.8 µM in the assay on SK-MEL-2 melanoma; 35.9 µM in the assay with CAKI-1 renal. Moreover, the TGI in the assay on HOP-92 NSCLC came to 31 µM; in the assay with CCRF-CEM leukemia, 43.2 µM.
In the case of `C=CNC(=O)NC(=O)CSc1nnc(-c2ccccc2NC(=O)C(F)(F)F)c(=O)[nH]1`, the TGI in the assay with SW-620 colon, in the assay on SF-268 CNS, with SNB-19 CNS, with SK-OV-3 ovarian, in the assay with SK-MEL-2 melanoma and with CAKI-1 renal was over 100 µM throughout. Besides, the TGI in the assay with HOP-92 NSCLC is 86.6 µM; with CCRF-CEM leukemia, over 100 µM.
